# Source: patent US9163003B2, “4-piperidinyl compounds for use as tankyrase inhibitors” (NOVARTIS AG, priority 2011, dated 2015)
# Read-outs that look alike come from different tables or passages of the source.
# Assays:
# Axin2 protein = assay: Cellular ELISA assay for stabilizing the Axin2 protein in SW480 cells; type: cell-based; conditions: 24 hrs treatment, read-out: Axin AC50
# Experimental: Compound activity in stabilizing the Axin2 protein was measured by Sandwich Enzyme-Linked Immuosorbent (ELISA) assay in the colorectal cell line SW480. 30,000 SW480 cells were seeded per well in 96-well plate and incubated overnight prior to compound treatment. Cells were then treated with compounds in 6-point dilution starting at 10 μM for 24 hrs. Cells were then washed with 100 μL of cold Phosphate Buffer Saline (PBS), and lysed in 125 μl of cold 1× lysis buffer (Cell Signaling Technology, 9803) supplemented with Protease inhibitor (Roche, 11836170) and Phosphatase inhibitors (Sigma, P2850, P5726). For the ELISA assay, anti Axin-2 capture antibody (Strategic Diagnostics) antibody was diluted to a concentration of 1 μg/ml (1:1000) in Carbonate Coating buffer, pH 9.2 (Sigma, C3041-50CAP). 100μ of the diluted anti Axin-2 capture antibody per well was then used to coat the 96-well ELISA plate (Thermo Electron Corp., MicroLite 1 flat bottom plate #7571) overnight at 4° C. Plates were then washed three times with 300 μl/well of wash solution, PBST20 (PBS+0.05% Tween), and blocked with 300 μl/well 1% BSA/PBS (BSA, Millipore Probumin #82-045-1) for 1.5 hours at room temperature while shaking gently. After blocking, plates were then washed three times with 300 μl/well of wash solution. 100 μL of prepared SW480 cell lysate was then added to each well and incubated at room temperature for 2 hours while shaking gently. After washing, 100 μL of Biotinylated anti-Axin2 antibody (CST, 2151) was added to each well and incubated room temperature for 2 hours. 100 μL of Streptavidin-HRP (R&D systems, DY998) diluted 1:200 in 1% BSA/PBS was then added in each well and incubate for 30 mins at R/T in the dark. Signal was detected by Chemiluminescence (Pierce SuperSignal ELISA Femto #3704), and measured on PerkinElmer Wallac 1420 plate reader.
# Human PARP1 = Human PARP1 (Homo sapiens (Human), UniProt P09874); assay: PARP1 autoparsylation biochemical assay, LC/MS detection of nicotinamide; conditions: read-out: PARP1 IC50, 20 nM enzyme, 250 μM NAD+, 60 min room temperature
# Human PARP1, sequence (P09874 whole entry, the tested form may be a part): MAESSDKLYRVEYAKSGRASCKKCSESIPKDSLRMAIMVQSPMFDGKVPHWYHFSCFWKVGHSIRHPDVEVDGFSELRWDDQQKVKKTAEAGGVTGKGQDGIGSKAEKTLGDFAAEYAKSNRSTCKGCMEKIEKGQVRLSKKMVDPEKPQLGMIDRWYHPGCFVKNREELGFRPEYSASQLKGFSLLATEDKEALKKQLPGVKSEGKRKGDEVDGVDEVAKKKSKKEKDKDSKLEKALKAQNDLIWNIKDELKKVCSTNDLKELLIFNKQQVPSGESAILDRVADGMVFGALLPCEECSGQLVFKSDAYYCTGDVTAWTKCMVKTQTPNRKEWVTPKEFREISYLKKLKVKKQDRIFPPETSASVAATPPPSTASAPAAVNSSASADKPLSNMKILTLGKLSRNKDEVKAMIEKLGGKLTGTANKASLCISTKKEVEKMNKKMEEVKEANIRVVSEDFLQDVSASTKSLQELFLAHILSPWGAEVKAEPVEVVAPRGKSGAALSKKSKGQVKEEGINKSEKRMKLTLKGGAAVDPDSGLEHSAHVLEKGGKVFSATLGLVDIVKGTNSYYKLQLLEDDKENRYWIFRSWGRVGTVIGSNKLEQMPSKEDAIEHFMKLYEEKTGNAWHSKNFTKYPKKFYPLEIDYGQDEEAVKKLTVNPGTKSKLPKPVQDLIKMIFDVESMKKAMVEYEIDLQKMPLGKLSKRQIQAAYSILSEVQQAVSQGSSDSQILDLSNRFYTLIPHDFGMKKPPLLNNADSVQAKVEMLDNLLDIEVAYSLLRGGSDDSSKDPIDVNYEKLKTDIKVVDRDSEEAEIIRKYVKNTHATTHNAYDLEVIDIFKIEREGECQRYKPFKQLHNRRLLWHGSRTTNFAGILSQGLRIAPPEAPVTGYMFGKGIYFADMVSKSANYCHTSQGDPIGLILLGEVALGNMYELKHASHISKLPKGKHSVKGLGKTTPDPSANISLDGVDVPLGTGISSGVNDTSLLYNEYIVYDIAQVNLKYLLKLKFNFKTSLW
# [1] = target: human tankyrase 1 PARP catalytic domain, TNKS1P (GST-tagged) (Homo sapiens (Human), UniProt O95271); assay: TNKS1 autoparsylation (AP) biochemical assay, LC/MS detection of nicotinamide; conditions: 20 nM enzyme, 250 μM NAD+, 60 min room temperature
# human tankyrase 1 PARP catalytic domain, TNKS1P (GST-tagged), sequence (O95271 1112-1317): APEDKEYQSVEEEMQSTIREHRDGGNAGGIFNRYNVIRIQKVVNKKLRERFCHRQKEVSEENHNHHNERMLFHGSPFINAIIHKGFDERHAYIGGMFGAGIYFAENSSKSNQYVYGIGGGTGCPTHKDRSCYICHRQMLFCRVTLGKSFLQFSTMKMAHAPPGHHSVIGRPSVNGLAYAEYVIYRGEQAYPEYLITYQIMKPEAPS
# Experimental: The human tankyrase 1 PARP catalytic domain, TNKS1P, was cloned into a pDONR221 vector using the Invitrogen Gateway Technology. This entry clone was then subcloned into the destination vector pDEST20 to obtain the N-terminal Glutathione S-transferase (GST)-tagged fusion protein.
# The autoparsylation activity of the TNKS 1/2 or PARP1/2 enzymes was measured by the liquid chromatography-mass spectrometry (LC/MS) detection of nicotinamide as readout. Compound activity in inhibiting the TNKS and PARP autoparsylation was evaluated by IC50 measurements.
# [2] = test system: Non-small lung cancer ABC-1 cells; assay: Cellular proliferation assay, ABC-1 cells (CellTiter-Glo); type: cell-based; conditions: 3 days of compound treatment
# Experimental: Non-small lung cancer ABC-1 cells were plated at 5000 cells per well in 96-well plates and treated with 8 serial compound dilutions starting from 10 μM as the highest concentration. Viable cells were measured after 3 days of compound treatment using the CellTiter-Glo assay (Promega, G7570). Assay was performed following the manufacture protocol.
# PARP2 = PARP2 (Mus musculus (Mouse), UniProt O88554); assay: PARP2 autoparsylation biochemical assay, LC/MS detection of nicotinamide; conditions: read-out: PARP2 Ic50, 20 nM enzyme, 250 μM NAD+, 60 min room temperature
# PARP2, sequence (O88554 whole entry, the tested form may be a part): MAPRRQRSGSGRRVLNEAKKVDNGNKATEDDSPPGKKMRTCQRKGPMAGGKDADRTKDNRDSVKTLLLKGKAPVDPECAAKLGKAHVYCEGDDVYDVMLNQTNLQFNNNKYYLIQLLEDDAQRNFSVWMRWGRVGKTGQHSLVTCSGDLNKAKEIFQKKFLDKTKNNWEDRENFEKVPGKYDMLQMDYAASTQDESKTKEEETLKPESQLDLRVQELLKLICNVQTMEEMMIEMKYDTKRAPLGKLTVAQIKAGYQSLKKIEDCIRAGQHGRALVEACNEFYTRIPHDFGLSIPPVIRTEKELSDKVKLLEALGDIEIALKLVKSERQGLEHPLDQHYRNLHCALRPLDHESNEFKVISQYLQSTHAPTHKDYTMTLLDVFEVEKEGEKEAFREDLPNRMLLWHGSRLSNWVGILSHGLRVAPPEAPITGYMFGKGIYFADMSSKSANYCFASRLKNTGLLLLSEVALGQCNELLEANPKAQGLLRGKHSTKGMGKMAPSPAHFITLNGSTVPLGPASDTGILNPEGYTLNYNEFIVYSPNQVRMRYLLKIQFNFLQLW
# [3] = target: tankyrase 2 protein PARP domain, TNKS2P (GST-tagged) (Homo sapiens (Human), UniProt Q9H2K2); assay: TNKS2 autoparsylation (AP) biochemical assay, LC/MS detection of nicotinamide; conditions: 20 nM enzyme, 250 μM NAD+, 60 min room temperature
# tankyrase 2 protein PARP domain, TNKS2P (GST-tagged), sequence (Q9H2K2 959-1164): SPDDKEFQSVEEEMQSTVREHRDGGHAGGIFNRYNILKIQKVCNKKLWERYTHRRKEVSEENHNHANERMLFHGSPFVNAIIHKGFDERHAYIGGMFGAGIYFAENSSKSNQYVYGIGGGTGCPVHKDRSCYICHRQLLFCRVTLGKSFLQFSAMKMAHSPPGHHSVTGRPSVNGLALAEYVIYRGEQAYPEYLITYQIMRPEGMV
# [4] = test system: Wnt ligand-induced signaling; assay: Wnt-responsive Super-TOpFlash (STF) luciferase reporter gene assay in HEK293 cells; type: cell-based; conditions: Homo sapiens, Wnt3A condition medium induced
# Experimental: Compound activity in inhibiting Wnt ligand-induced signaling was measured using a Wnt-responsive Super-TOpFlash (STF) luciferase reporter gene assay in HEK293 cells. On day 1 of the assay, cells were plated at a density of 8000 cells per well of 384-well plate in 25 μl medium containing 5% fetal bovine serum (FBS). On the second day, […] condition medium (CM) produced from mouse L cells was added to the cells to induce Wnt signaling, followed by addition of 5 μL of compounds each well in 10-point serial dilution. On the third day, the luciferase activity was measured by the Bright-Glo™ Luciferase Assay System following manufacture's protocol (Promega, E2620). The Inhibition was calculated as: (Maximum Wnt-induced signaling−Sample)/(Maximum Wnt-induced signaling−Background)*100. “Maximum Wnt-induced signaling” is the STF signal level induced by 20% Wnt3A CM without compound; and “Background” is the STF signal level without the addition of Wnt3A CM or compound.
Compound,AC50 (Axin2 protein),IC50 (Human PARP1),IC50 [1],IC50 [2],IC50 (PARP2),AC50 (Axin2 protein; Homo sapiens),IC50 [3],IC50 [4],"IC50 ([2]; Homo sapiens, 72 h)"
"COc1ccc(C(=O)C2CCN([C@@H]3CCN(CC(=O)Nc4nnc5n4CCS5)C3=O)CC2)cc1 (single isomer, unassigned) [Example 34]",0.078 ± 0.006 µM,> 19 µM,0.038 ± 0.001 µM,0.049 µM,6.3 ± 0.7 µM,,,,
"COc1ccc(C(=O)C2CCN(C3CCN(Cc4nc5c(c(=O)[nH]4)COCC5)C3=O)CC2)cc1 (stereo not shown) [Example 2, 2-{3-[4-(4-Methoxy-benzoyl)-piperidin-1-yl]-2-oxo-pyrrolidin-1-ylmethyl}-3,5,7,8-tetrahydro-pyrano[4,3-d]pyrimidin-4-one]",,9.3 ± 1.8 µM,0.033 ± 0.007 µM,,5.4 ± 0.4 µM,0.0313 ± 0.0036 µM,0.015 ± 0.004 µM,0.0013 ± 0.0008 µM,0.03 ± 0.005 µM
"COc1ccc(C(=O)C2CCN([C@H]3CCN(Cc4nc5c(c(=O)[nH]4)COCC5)C3=O)CC2)cc1 [Example 3, 2-{(S)-3-[4-(4-Methoxy-benzoyl)-piperidin-1-yl]-2-oxo-pyrrolidin-1-ylmethyl}-3,5,7,8-tetrahydro-pyrano[4,3-d]pyrimidin-4-one]",,21 ± 8.7 µM,0.0128 ± 0.0026 µM,,4.8 ± 0.6 µM,0.0063 ± 0.0013 µM,0.0095 ± 0.0007 µM,0.0011 ± 0.0004 µM,0.012 ± 0.003 µM
"COc1ccc(C(=O)C2CCN(C3CCN(Cc4nc5c(cnn5C)c(=O)[nH]4)C3=O)CC2)cc1 (stereo not shown) [Example 6, 6-{3-[4-(4-Methoxy-benzoyl)-piperidin-1-yl]-2-oxo-pyrrolidin-1-ylmethyl}-1-methyl-1,3a,5,7a-tetrahydro-pyrazolo[3,4-d]pyrimidin-4-one]",,> 19 µM,0.022 ± 0.004 µM,,> 19 µM,0.023 ± 0.003 µM,0.025 ± 0.004 µM,0.0059 ± 0.0015 µM,0.043 µM
"O=C(c1ccc(Cl)cc1)C1CCN(C2CCN(Cc3nc4c(c(=O)[nH]3)COCC4)C2=O)CC1 (stereo not shown) [Example 9, 2-{3-[4-(4-Chloro-benzoyl)-piperidin-1-yl]-2-oxo-pyrrolidin-1-ylmethyl}-3,5,7,8-tetrahydro-pyrano[4,3-d]pyrimidin-4-one]",,16.6 ± 4.2 µM,0.03 ± 0.002 µM,,4.62 ± 0.95 µM,0.052 ± 0.004 µM,0.023 ± 0.001 µM,0.003 ± 0.003 µM,0.06 µM
"O=C(c1ccc(F)cc1)C1CCN(C2CCN(Cc3nc4c(c(=O)[nH]3)COCC4)C2=O)CC1 (stereo not shown) [Example 10, 2-{3-[4-(4-Fluoro-benzoyl)-piperidin-1-yl]-2-oxo-pyrrolidin-1-ylmethyl}-3,5,7,8-tetrahydro-pyrano[4,3-d]pyrimidin-4-one]",,23.6 ± 2.7 µM,0.027 ± 0.001 µM,,9.2 ± 2.2 µM,0.257 ± 0.067 µM,0.006 ± 0.001 µM,0.01 ± 0.001 µM,0.291 µM
"O=C(c1ccc(F)cc1)C1CCN([C@H]2CCN(Cc3nc4c(c(=O)[nH]3)COCC4)C2=O)CC1 [Example 11, 2-{(S)-3-[4-(4-Fluoro-benzoyl)-piperidin-1-yl]-2-oxo-pyrrolidin-1-ylmethyl}-3,5,7,8-tetrahydro-pyrano[4,3-d]pyrimidin-4-one]",,37.4 ± 0.3 µM,0.037 ± 0.005 µM,,10.2 ± 4.2 µM,0.132 ± 0.022 µM,0.017 ± 0.002 µM,0.005 ± 0.005 µM,0.301 µM
"COc1ccc(C(=O)C2CCN([C@H]3CCN(Cc4nc5c(c(=O)[nH]4)COCC5)C3=O)CC2)cc1C [Example 13, 2-{(S)-3-[4-(4-Methoxy-3-methyl-benzoyl)-piperidin-1-yl]-2-oxo-pyrrolidin-1-ylmethyl}-3,5,7,8-tetrahydro-pyrano[4,3-d]pyrimidin-4-one]",,24 ± 3 µM,0.006 ± 0.001 µM,,4 ± 1.1 µM,0.0021 ± 0.0001 µM,0.003 ± 0.001 µM,0.0012 ± 0.001 µM,0.003 µM
"COc1ccc(C(=O)C2CCN(C3CCN(Cc4nc5c(c(=O)[nH]4)CCC5)C3=O)CC2)cc1 (stereo not shown) [Example 21, 2-((3-(4-(4-methoxybenzoyl)piperidin-1-yl)-2-oxopyrrolidin-1-yl)methyl)-6,7-dihydro-3H-cyclopenta[d]pyrimidin-4(5H)-one]",,29.6 ± 2.8 µM,0.034 ± 0.001 µM,,10.7 ± 0.2 µM,0.007 ± 0.002 µM,0.017 ± 0.002 µM,0.0011 ± 0.00017 µM,0.018 µM
"CCc1cc(=O)[nH]c(CN2CCC(N3CCC(C(=O)c4ccc(OC)cc4)CC3)C2=O)n1 (stereo not shown) [Example 24, 6-Ethyl-2-{3-[4-(4-methoxy-benzoyl)-piperidin-1-yl]-2-oxo-pyrrolidin-1-ylmethyl}-3H-pyrimidin-4-one]",,> 19 µM,0.115 ± 0.004 µM,,> 19 µM,0.104 ± 0.015 µM,0.053 ± 0.005 µM,0.0104 ± 0.0023 µM,0.183 µM
"COc1ccc(C(=O)C2CCN(C3CCN(Cc4ncc(C)c(=O)[nH]4)C3=O)CC2)cc1 (stereo not shown) [Example 25, 2-{3-[4-(4-Methoxy-benzoyl)-piperidin-1-yl]-2-oxo-pyrrolidin-1-ylmethyl}-5-methyl-3H-pyrimidin-4-one]",,> 19 µM,0.072 ± 0.002 µM,,> 19 µM,0.046 ± 0.003 µM,0.036 ± 0.006 µM,0.0034 ± 0.0015 µM,0.117 µM
"COc1ccc(C(=O)C2CCN(C3CCN(Cc4nc(C)c(C)c(=O)[nH]4)C3=O)CC2)cc1 (stereo not shown) [Example 26, 2-{3-[4-(4-Methoxy-benzoyl)-piperidin-1-yl]-2-oxo-pyrrolidin-1-ylmethyl}-5,6-dimethyl-3H-pyrimidin-4-one]",,> 19 µM,0.047 ± 0.002 µM,,> 19 µM,0.021 ± 0.003 µM,0.026 ± 0.001 µM,0.0041 ± 0.0021 µM,0.043 µM
"COc1ccc(C(=O)C2CCN([C@@H]3CCN(Cc4nc5ccccc(=O)c5[nH]4)C3=O)CC2)cc1 [Example 31, 2-{(R)-3-[4-(4-Methoxy-benzoyl)-piperidin-1-yl]-2-oxo-pyrrolidin-1-ylmethyl}-3H-cycloheptaimidazol-4-one]",,,1.08 ± 0.01 µM,,10.1 ± 2.6 µM,0.089 ± 0.002 µM,,0.065 ± 0.014 µM,0.085 µM
"COc1ccc(C(=O)C2CCN(C3CCN(CC(=O)Nc4nnc5n4CCS5)C3=O)CC2)cc1 (stereo not shown) [Example 32, N-(5,6-dihydrothiazolo[2,3-c][1,2,4]triazol-3-yl)-2-(3-(4-(4-methoxybenzoyl)piperidin-1-yl)-2-oxopyrrolidin-1-yl)acetamide]",,> 19 µM,0.043 ± 0.001 µM,,5.09 ± 0.12 µM,0.131 ± 0.008 µM,,,0.076 µM
"COc1ccc(C(=O)C2CCN(C3CCN(CC(=O)Nc4nnc5ccccn45)C3=O)CC2)cc1 (stereo not shown) [Example 35, N-([1,2,4]triazolo[4,3-a]pyridin-3-yl)-2-(3-(4-(4-methoxybenzoyl)piperidin-1-yl)-2-oxopyrrolidin-1-yl)acetamide]",,,2.47 ± 0.03 µM,,,1.89 ± 0.16 µM,0.636 ± 0.036 µM,0.94 ± 0.07 µM,2.63 µM
